Data from patent publication US20230108049A1, “ORAL FAST-DISPERSING DOSAGE FORM OF RIMEGEPANT” (BIOHAVEN PHARMACEUTICAL HOLDING COMPANY LTD., priority 2020, published 2023).

Key:
rat micronucleus = assay: Rat micronucleus assay (in vivo)
Text: (§1) Rimegepant was negative in in vitro (bacterial reverse-mutation, chromosomal aberration in Chinese hamster ovary cells) and in vivo (rat micronucleus) assays.

[1] = Dedicated clinical study, pharmacokinetics in renal impairment; type: in vivo, human
Method: In a dedicated clinical study comparing the pharmacokinetics of rimegepant in subjects with mild (estimated creatinine clearance [CLcr] 60-89 mL/min), moderate (CLcr 30-59 mL/min), and severe (CLcr 15-29 mL/min) renal impairment to that with normal subjects (healthy matched control), the exposure of rimegepant following single 75 mg dose was approximately 40% higher in subjects with moderate renal impairment. […] NURTEC ODT has not been studied in patients with end-stage renal disease (CLcr<15 mL/min) [see Use in Specific Populations].

[2] = system: Chinese hamster ovary cells; assay: Chromosomal aberration assay (in vitro); type: cell-based
Text: as §1

CYP3A4 [3] = target: CYP3A4 (Homo sapiens, UniProt P08684); assay: Dedicated drug interaction study with itraconazole (strong CYP3A4 inhibitor); type: in vivo; set-up: endogenous in cells; host or cells: in vivo, endogenous enzyme of the study subjects; details: 75 mg single dose with itraconazole at steady state
Chain of CYP3A4 (Homo sapiens, UniProt P08684) (P08684 whole entry): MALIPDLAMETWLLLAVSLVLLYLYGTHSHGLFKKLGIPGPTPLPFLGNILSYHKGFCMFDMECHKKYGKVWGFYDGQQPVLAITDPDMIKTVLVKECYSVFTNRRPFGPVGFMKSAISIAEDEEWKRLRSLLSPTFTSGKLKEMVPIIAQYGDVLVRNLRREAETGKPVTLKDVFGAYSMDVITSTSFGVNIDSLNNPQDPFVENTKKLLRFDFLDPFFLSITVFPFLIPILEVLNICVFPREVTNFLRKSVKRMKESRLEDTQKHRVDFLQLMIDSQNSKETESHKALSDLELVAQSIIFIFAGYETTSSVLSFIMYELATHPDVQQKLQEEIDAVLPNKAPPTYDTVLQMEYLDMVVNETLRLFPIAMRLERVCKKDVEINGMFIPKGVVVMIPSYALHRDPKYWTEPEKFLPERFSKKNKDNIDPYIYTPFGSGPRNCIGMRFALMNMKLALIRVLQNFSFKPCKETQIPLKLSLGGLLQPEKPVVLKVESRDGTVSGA

Plasma protein binding = type: in vitro ADME
Text: (§2) The steady state volume of distribution of rimegepant is 120 L. Plasma protein binding of rimegepant is approximately 96%.

clinical = details: human, in vivo
Method: Following oral administration of NURTEC ODT, rimegepant is absorbed with the maximum concentration at 1.5 hours.
as §2
Following oral administration of [^14C]-rimegepant to healthy male subjects, 78% of the total radioactivity was recovered in feces and 24% in urine. Unchanged rimegepant is the major single component in excreted feces (42%) and urine (51%).

OATP1B1 [4] = target: T1, OATP1B1 (Homo sapiens, UniProt Q9Y6L6); assay: In vitro transporter inhibition; type: in vitro ADME
T1 sequence (Q9Y6L6 whole entry): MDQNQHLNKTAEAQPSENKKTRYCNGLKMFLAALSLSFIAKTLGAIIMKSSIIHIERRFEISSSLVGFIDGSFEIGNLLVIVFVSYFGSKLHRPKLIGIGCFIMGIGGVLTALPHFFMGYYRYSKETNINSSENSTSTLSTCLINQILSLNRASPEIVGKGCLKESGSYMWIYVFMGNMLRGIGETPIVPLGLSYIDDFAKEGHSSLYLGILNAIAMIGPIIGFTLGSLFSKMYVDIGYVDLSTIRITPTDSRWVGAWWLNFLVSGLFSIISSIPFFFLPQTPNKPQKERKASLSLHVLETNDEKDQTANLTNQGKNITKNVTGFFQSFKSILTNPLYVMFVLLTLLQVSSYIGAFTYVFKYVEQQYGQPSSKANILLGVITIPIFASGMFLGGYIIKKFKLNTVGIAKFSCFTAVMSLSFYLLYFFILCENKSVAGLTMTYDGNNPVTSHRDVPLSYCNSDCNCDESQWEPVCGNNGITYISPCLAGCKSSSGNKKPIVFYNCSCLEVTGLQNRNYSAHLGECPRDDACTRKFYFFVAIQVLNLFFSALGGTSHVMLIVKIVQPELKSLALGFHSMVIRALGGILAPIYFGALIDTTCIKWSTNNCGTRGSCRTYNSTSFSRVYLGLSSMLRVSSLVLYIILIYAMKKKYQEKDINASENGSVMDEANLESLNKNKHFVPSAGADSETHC

[5] = system: bacterial reverse-mutation; assay: Bacterial reverse-mutation assay (in vitro); type: cell-based
Text: as §1

CYP2B6 = assay: In vitro enzyme induction; type: in vitro ADME; details: at clinically relevant concentrations
Text: (§3) Rimegepant is a substrate of CYP3A4 and CYP2C9 [see In Vivo Studies].

CYP3A4 [6] = assay: In vitro enzyme induction; type: in vitro ADME; details: at clinically relevant concentrations
Text: as §3

CYP1A2 = assay: In vitro enzyme induction; type: in vitro ADME; details: at clinically relevant concentrations
Text: as §3

[7] = Cardiac electrophysiology (QT interval); type: in vivo, human; details: single dose 4 times the recommended dose
rats = assay: Second fertility study, rats, lower doses (0, 5, 15, or 25 mg/kg/day); type: in vivo, rat
[8] = Dedicated clinical study, pharmacokinetics in hepatic impairment; type: in vivo, human
Method: In a dedicated clinical study comparing the pharmacokinetics of rimegepant in subjects with mild, moderate, and severe hepatic impairment to that with normal subjects (healthy matched control), the exposure of rimegepant (Cmax and AUC) following a single 75 mg dose was approximately 2-fold higher in subjects with severe impairment (Child-Pugh class C).

OATP1B3 = OATP1B3 (Homo sapiens, UniProt Q9NPD5); assay: In vitro transporter substrate study; type: in vitro ADME
Chain of OATP1B3 (Q9NPD5 whole entry): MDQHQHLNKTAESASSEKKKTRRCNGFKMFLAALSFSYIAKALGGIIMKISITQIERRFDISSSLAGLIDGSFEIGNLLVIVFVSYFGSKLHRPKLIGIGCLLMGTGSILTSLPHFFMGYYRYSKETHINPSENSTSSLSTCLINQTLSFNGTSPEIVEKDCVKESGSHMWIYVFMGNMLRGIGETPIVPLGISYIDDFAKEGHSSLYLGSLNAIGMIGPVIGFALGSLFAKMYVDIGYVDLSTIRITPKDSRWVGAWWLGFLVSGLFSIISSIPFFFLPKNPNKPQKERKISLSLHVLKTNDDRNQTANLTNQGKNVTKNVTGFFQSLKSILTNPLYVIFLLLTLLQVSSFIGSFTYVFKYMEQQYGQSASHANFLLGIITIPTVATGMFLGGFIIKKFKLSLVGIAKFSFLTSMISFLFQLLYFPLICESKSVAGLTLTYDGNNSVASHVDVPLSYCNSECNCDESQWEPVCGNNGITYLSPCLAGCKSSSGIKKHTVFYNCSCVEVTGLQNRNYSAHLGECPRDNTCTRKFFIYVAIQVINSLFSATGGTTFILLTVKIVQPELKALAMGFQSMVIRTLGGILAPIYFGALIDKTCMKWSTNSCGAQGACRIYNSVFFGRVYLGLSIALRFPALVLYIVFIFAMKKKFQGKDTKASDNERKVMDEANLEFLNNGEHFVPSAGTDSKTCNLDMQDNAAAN
Text: (§4) Considering its low renal clearance, rimegepant was not evaluated as a substrate of the OAT1, OAT3, OCT2, MATE1, or MATE2-K.

OATP1B1 [9] = target: T1, OATP1B1; assay: In vitro transporter substrate study; type: in vitro ADME
Text: as §4

healthy volunteers = assay: Resting blood pressure on concomitant administration with sumatriptan; type: in vivo, human; details: with sumatriptan 12 mg subcutaneous vs sumatriptan alone
Text: The relationship between pharmacodynamic activity and the mechanism(s) by which rimegepant exerts its clinical effects is unknown.

CYP3A4 and CYP2C9 = assay: Dedicated drug interaction study with fluconazole (combined moderate CYP3A4 and CYP2C9 inhibitor); type: in vivo, human; details: 75 mg single dose with fluconazole
male and female rats = assay: Fertility study, oral, male and female rats (0, 30, 60, or 150 mg/kg/day); type: in vivo, rat
pregnant rabbits = assay: Embryofetal development study, oral administration during organogenesis, rabbits; type: in vivo, rabbit
Method: The highest dose tested (50 mg/kg/day) was associated with plasma exposures (AUC) approximately 10 times that in humans at the MRHD.

P-gp = P-gp (Homo sapiens, UniProt P08183); assay: In vitro transporter substrate study; type: in vitro ADME
Chain of P-gp (P08183 whole entry): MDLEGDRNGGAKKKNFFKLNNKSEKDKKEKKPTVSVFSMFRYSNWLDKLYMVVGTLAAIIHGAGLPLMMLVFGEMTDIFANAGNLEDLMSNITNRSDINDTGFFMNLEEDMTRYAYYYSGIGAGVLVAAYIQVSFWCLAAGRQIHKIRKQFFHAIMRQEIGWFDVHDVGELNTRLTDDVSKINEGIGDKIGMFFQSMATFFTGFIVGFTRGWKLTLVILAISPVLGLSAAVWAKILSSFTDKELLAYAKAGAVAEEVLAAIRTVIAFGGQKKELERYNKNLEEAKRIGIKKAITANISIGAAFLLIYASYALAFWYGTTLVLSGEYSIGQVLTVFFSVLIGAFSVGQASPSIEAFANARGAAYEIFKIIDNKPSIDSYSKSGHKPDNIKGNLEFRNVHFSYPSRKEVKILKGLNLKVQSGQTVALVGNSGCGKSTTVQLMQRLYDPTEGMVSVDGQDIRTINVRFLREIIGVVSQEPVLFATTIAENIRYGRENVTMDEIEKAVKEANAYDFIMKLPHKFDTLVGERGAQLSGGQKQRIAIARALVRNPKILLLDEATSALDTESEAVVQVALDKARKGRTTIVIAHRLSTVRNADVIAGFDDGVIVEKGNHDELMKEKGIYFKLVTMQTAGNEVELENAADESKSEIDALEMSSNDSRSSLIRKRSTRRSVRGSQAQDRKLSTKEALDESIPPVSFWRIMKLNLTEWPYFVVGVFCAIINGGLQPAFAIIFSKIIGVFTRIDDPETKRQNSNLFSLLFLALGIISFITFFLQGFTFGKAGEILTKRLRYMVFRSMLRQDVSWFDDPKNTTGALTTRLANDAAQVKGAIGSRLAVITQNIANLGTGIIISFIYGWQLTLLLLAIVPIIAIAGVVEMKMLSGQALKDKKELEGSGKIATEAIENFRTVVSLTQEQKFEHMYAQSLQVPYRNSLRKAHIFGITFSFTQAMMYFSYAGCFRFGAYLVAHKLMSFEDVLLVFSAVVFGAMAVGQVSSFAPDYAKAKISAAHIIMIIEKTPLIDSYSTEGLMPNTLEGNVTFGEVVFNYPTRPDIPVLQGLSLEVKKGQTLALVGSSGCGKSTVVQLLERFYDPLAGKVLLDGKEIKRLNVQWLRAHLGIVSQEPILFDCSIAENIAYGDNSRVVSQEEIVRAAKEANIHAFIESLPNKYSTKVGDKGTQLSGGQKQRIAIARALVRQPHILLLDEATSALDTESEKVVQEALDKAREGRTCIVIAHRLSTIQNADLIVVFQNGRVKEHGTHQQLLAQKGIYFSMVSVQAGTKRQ
Method: (§5) Rimegepant is a substrate of P-gp and BCRP. Concomitant administration of inhibitors of P-gp or BCRP may increase the exposure of rimegepant [see Drug Interactions]. No dedicated drug interaction study was conducted to assess their effects on the pharmacokinetics of rimegepant.

BCRP = BCRP (Homo sapiens, UniProt Q9UNQ0); assay: In vitro transporter substrate study; type: in vitro ADME
Chain of BCRP (Q9UNQ0 whole entry): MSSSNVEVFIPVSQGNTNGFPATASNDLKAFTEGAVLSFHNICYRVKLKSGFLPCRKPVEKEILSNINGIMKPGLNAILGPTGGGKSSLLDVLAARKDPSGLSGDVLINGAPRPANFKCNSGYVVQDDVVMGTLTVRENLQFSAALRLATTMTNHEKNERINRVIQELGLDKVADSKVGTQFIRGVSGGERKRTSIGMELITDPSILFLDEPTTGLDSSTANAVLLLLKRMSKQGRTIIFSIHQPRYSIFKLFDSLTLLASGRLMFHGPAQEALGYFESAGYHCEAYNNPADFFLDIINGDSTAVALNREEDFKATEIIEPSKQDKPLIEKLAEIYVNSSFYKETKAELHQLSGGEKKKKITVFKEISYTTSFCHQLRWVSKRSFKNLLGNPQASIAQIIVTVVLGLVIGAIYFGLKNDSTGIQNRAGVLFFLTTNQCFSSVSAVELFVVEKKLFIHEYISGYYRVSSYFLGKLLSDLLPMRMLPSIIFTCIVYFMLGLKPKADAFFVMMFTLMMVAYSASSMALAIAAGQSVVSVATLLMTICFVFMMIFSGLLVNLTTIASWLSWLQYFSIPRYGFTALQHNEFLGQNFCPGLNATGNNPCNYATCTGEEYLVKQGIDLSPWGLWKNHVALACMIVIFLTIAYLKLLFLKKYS
Method: as §5

For `N[C@@H]1c2cccnc2[C@H](OC(=O)N2CCC(n3c(=O)[nH]c4ncccc43)CC2)CC[C@H]1c1cccc(F)c1F` [rimegepant, (5S,6S,9R)-5-amino-6-(2,3-difluorophenyl)-6,7,8,9-tetrahydro-5H-cyclohepta[b]pyridin-9-yl 4-(2-oxo-2,3-dihydro-1H-imidazo[4,5-b]pyridin-1-yl)-1-piperidinecarboxylate], the “mutagenesis, rat micronucleus” value (rat micronucleus) was “negative”, the “difference in exposure vs normal renal function” value ([1]; severe renal impairment (CLcr 15-29 mL/min)) was “no clinically meaningful difference” and the “exposure higher than in normal subjects” value ([1]; single 75 mg dose, moderate renal impairment (CLcr 30-59 mL/min)) was “approximately 40%”. For the same compound, the “mutagenesis, chromosomal aberration” value [2] was “negative”, the “increase of rimegepant AUC” value (CYP3A4 [3]) was 4 fold and the “increase of rimegepant Cmax” value (CYP3A4 [3]) was about 1.5 fold. For the same compound, the fraction unbound (Plasma protein binding) was about 0.04, the “eliminated in unchanged form” value (clinical) was ~77 % of the dose and the half-life (clinical) was about 11 h. For the same compound, the “major metabolites (i.e., >10%) in plasma” value (clinical) was “no major metabolites”, the bioavailability (clinical; po) was about 64% and the “inhibition of OATP1B1” value (OATP1B1 [4]) was “weak inhibitor”. The “mutagenesis, bacterial reverse-mutation” value [5] was “negative”, the “induction of CYP2B6” value (CYP2B6) was “not an inducer” and the “induction of CYP3A4” value (CYP3A4 [6]) was “not an inducer”. For the same compound, the “induction of CYP1A2” value (CYP1A2) was “not an inducer”, the QT interval prolongation [7] was “does not prolong the QT interval to any clinically relevant extent” and the “effects on fertility, uterine histopathology, early embryonic development” value (rats; 0, 5, 15, or 25 mg/kg/day) was “no adverse effects on fertility, uterine histopathology, or early embryonic development”. For the same compound, the “plasma drug exposures (AUC) relative to humans at the MRHD” value (rats; at the no-effect dose (25 mg/kg/day)) was “approximately 15 times”, the “no-effect dose for impairment of fertility and early embryonic development” value (rats; rats) was 25 mg/kg/day and the “difference in exposure vs normal hepatic function” value ([8]; mild (Child-Pugh class A) and moderate (Child-Pugh class B) hepatic impairment) was “no clinically meaningful differences”. For the same compound, the “exposure (Cmax and AUC) higher than in normal subjects” value ([8]; single 75 mg dose, severe hepatic impairment (Child-Pugh class C)) was “approximately 2 fold”, the “substrate of OATP1B3” value (OATP1B3) was “not a substrate” and the “substrate of OATP1B1” value (OATP1B1 [9]) was “not a substrate”. The resting blood pressure (healthy volunteers) was “No clinically relevant differences in resting blood pressure”, the “effect on rimegepant Cmax” value (CYP3A4 and CYP2C9) was “no relevant effect” and the “increase of rimegepant AUC” value (CYP3A4 and CYP2C9) was 1.8 fold. For the same compound, the fertility (male and female rats; highest dose tested (150 mg/kg/day)) was “reduced fertility at the highest dose tested”, the uterine histopathology (male and female rats; oral 30, 60, or 150 mg/kg/day, prior to and during mating, females to GD 7) was “uterine atrophy at all doses” and the “effects on embryofetal development” value (pregnant rabbits; 0, 10, 25, or 50 mg/kg/day oral) was “no adverse effects on embryofetal development”. The “plasma exposure (AUC) relative to humans at the MRHD” value (pregnant rabbits; highest dose tested (50 mg/kg/day)) was “approximately 10 times”, the “substrate of P-gp” value (P-gp) was “substrate” and the “substrate of BCRP” value (BCRP) was “substrate”.
